Data set [1] relates to Human breast carcinoma UISO-BCA-1. The data set is described as follows: Antitumor activity in Human Mammary UISO-BCA-1 xenografted in nude mice (3-arm dose-response). The data set is classed as in vivo. As to conditions: for sensitivity of the UISO-BCA-1 xenograft to the agent: characterisation of the tumor model, monotherapy; for (T-C) days / CR / TFS d121 / log cell kill: acetocyclopropyl taxotere alone, day 17, 21, 25. As to the method: This efficacy may be quantified, for example, by the log10 cells killed, which is determined according to the following formula: […]
A product is considered to be active if log10 cells killed is greater than or equal to 0.7. A product is considered to be very active if log10 cells killed is greater than 2.8.
The combination, used at its own maximum tolerated dose, in which each of the constituents will be present at a dose generally not exceeding its maximum tolerated dose, will manifest therapeutic synergy when the log10 cells killed is greater than the value of the log10 cells killed of the best constituent when it is administered alone.
(§1) The animals subjected to the experiment, generally mice, are subcutaneously grafted bilaterally with 30 to 60 mg of a tumor fragment on day 0. The animals bearing tumors are mixed before being subjected to the various treatments and controls. In the case of treatment of advanced tumors, tumors are allowed to develop to the desired size, animals having insufficiently developed tumors being eliminated. The selected animals are distributed at random to undergo the treatments and controls. […] The different animal groups are weighed 3 or 4 times a week until the maximum weight loss is reached, and the groups are then weighed at least once a week until the end of the trial.
The tumors are measured 2 or 3 times a week until the tumor reaches approximately 2 g, or until the animal dies if this occurs before the tumor reaches 2 g. The animals are autopsied when sacrificed.
The tumor model used to evaluate each drug combination was selected, in general, on the basis of its responsiveness to each of the agents when used as monotherapy. Using i.v. intermittent schedules, full dose response trials were conducted for each single agent and each combination. In the present case, the selected tumor was a Human breast carcinoma UISO-BCA-1 derived from a malignant pleural effusion. The primary tumor was well-differentiated infiltrating ductal carcinoma of the breast. Radiotherapy post mastectomy was practiced. Three years after, chemotherapy to treat a left supraclavicular mass was done (10 courses with cytoxan, methotrexate, 5-Fu and Tamoxifen). […] This tumor model was established in nude mice from a 2.10^7 cell implant, and maintained by serial sc passage as tumor fragment.

Data set [2] in a line: Toxicity (drug deaths, body weight loss, highest non-toxic dose) in tumor-bearing nude mice. The data set is classed as in vivo. As to conditions: for % bwl at nadir / Drug deaths: acetocyclopropyl taxotere alone, day 17, 21, 25. How it is done:
as §1

Where [3] appears, read: iv 12.4 mg/kg/day (total 37.2 mg/kg).
[4] abbreviates: iv 20.0 mg/kg/day (total 60.0 mg/kg).
The mark [5] stands for this setting: iv 32.3 mg/kg/day (total 96.9 mg/kg).
Setting [6] is: iv 52.1 mg/kg/day (total 156.3 mg/kg).
The mark [7] stands for this setting: single agent, iv day 17, 21, 25.

As for `CC(=O)O[C@@]12CO[C@@H]1C[C@H](O)[C@@]1(C)C(=O)[C@H](O)C3=C(C)[C@@H](OC(=O)[C@H](O)[C@@H](NC(=O)OC(C)(C)C)c4ccccc4)C[C@@](O)([C@@H](OC(=O)c4ccccc4)[C@H]21)C3(C)C` [docetaxel, reference compound], the “sensitivity of the UISO-BCA-1 xenograft to the agent” value (from here on “sensitivity”) in data set [1] is “resistant”.
On to `CC(=O)O[C@H]1C(=O)[C@]23C[C@H]2C[C@H]2OC[C@@]2(OC(C)=O)[C@H]3[C@H](OC(=O)c2ccccc2)[C@]2(O)CC(OC(=O)[C@H](O)C(NC(=O)OC(C)(C)C)c3ccccc3)C(C)=C1C2(C)C` (some centres unmarked) [acetocyclopropyl taxotere], for which the “(T-C) days” value is 1.8 days in data set [1] (setting [3]), 6.0 days in data set [1] (setting [4]) and 20.8 days in data set [1] (setting [5]). In addition, the CR in data set [1] (setting [3]) is on record as 0/8; in data set [1] (setting [4]), 0/8; in data set [1] (setting [5]), 0/8; in data set [1] (iv 32.3 mg/kg/day (total 96.9 mg/kg), listed as acetyl cyclopropyl docetaxel), “no regression”. In addition, the “TFS d121” value in data set [1] (setting [3]), in data set [1] (setting [4]) and in data set [1] (setting [5]) was 0/8 in each case. Besides, the log cell kill was 0.1 in data set [1] (setting [3]), 0.4 in data set [1] (setting [4]) and 1.3 in data set [1] (setting [5]). The “sensitivity” value in data set [1] is “sensitive”. Further, the “% bwl at nadir” value worked out at 0.5% in data set [2] (setting [3]), 0.5% in data set [2] (setting [4]), 5.2% in data set [2] (setting [5]) and 7.2% in data set [2] (setting [6]). Moreover, the Drug deaths was 0/8 in data set [2] (setting [3]), 0/8 in data set [2] (setting [4]), 0/8 in data set [2] (setting [5]) and 2/8 in data set [2] (setting [6]). The highest non-toxic dose in data set [2] (setting [7]) is recorded as 32.3 mg/kg per injection. Moreover, the “highest non-toxic dose, total dose” value in data set [2] (setting [7]) is recorded as 96.9 mg/kg.
Take `O=P1(N(CCCl)CCCl)NCCCO1` (centres unmarked) [cyclophosphamide, reference compound]: the “sensitivity” value in data set [1] is recorded as “poorly sensitive”.
`O=c1[nH]cc(F)c(=O)[nH]1` [5-Fluorouracil, reference compound]: the “sensitivity” value in data set [1] is reported as “sensitive”.
For `COc1cccc2c1C(=O)c1c(O)c3c(c(O)c1C2=O)C[C@@](O)(C(=O)CO)C[C@@H]3O[C@H]1C[C@H](N)[C@H](O)[C@H](C)O1` [doxorubicin, reference compound], in data set [1], the “sensitivity” value is given as “poorly sensitive”.
Consider `CC[C@]1(O)C[C@H]2CN(CCc3c([nH]c4ccccc34)[C@@](C(=O)OC)(c3cc4c(cc3OC)N(C=O)[C@H]3[C@@](O)(C(=O)OC)[C@H](OC(C)=O)[C@]5(CC)C=CCN6CC[C@]43[C@@H]65)C2)C1` [vincristine, reference compound], for which the “sensitivity” value in data set [1] is given as “poorly sensitive”.

The values are drawn from patent US20090196869A1, “ANTITUMOR COMBINATIONS CONTAINING TAXANE DERIVATIVES” (SANOFI-AVENTIS, priority 2006, published 2009).
